Tested on: Glucan Synthase of Candida albicans
Assay: Inhibition of the Glucan Synthase of Candida albicans
Type: biochemical
Conditions: Candida albicans membranes, 14C-UDP glucose, 25° C. for 1 hour
Protocol: A—Inhibition of the Glucan Synthase of Candida albicans
Candida albicans membranes were purified according to the process described by Tang et al Antimicrob. Agents Chemother 35, 99–103, 1991. 22.5 μg of membrane proteins are incubated in a mixture of 2 Mm of 14C-UDP glucose (specific activity=0.34 mCi./mmol, 50 μg of α-amylase, 1 Mm of dithiotreitol (DTT), 1 Mm EDTA, 100 Mm NaF, 7 μM of GTP-γ-S, 1 M of sucrose and 50 Mm of Tris-HCL (pH 7.8) in a volume of 100 μl. The medium is incubated at 25° C. for 1 hour and the reaction is terminated by adding TCA at a final concentration of 5%. The reaction mixture is transferred onto a pre-humidified glass fibre filter. The filter is washed, dried and its radioactivity is counted.
Mulundocandine is used as a positive control.
Control of the vehicle is carried out with the same quantity of 1% DMSO.

Question: Which “Inhibition of the Glucan Synthase of Candida albicans” value does the source give for “1-[4-[(2-aminoethyl)amino]-N2-[[4-[5-[4-pentyloxy)-phenyl]-3-isoxazolyl]-phenyl]-carbonyl]-L-ornithine]-4-(4-hydroxyphenyl)-L-threonine]-5-L-serine-echinocandine B [Example 1]” here?
Answer: Its value is “good activity”.

Reference: patent US7005417B1, “Echinocandin derivatives, method for preparing same and use as antifungal agents” (Aventis Pharma S.A., priority 1999, dated 2006)
